Here are results for 20 molecules from ChEMBL document CHEMBL6153161, “Exploring Arylidene-Indolinone Ligands of Autophagy Proteins LC3B and GABARAP” (ACS Med Chem Lett, 2025).

Experiment [1] in a line: Inhibition of GABARAP (unknown origin) expressed in Escherichia coli BL21(DE3) incubated for 45 mins by AlphaScreen assay. Details: species or system Homo sapiens. In general terms: Alpha assays give light when donor and acceptor beads are brought close together.
Experiment [2] is described as follows: Binding affinity to GABARAP (unknown origin) assessed as dissociation constant by biolayer interferometry analysis. Also noted: species or system Homo sapiens.
In experiment [3] the target is T1, Microtubule-associated protein 1 light chain 3 beta (Homo sapiens, UniProt Q9GZQ8). Description: Inhibition of LC3B (unknown origin) expressed in Escherichia coli BL21(DE3) incubated for 45 mins by AlphaScreen assay.
For experiment [4], the target named is T1, Microtubule-associated protein 1 light chain 3 beta. Description: Binding affinity against recombinant LC3B (unknown origin) assessed as dissociation constant by surface plasmon resonance assay. (Surface plasmon resonance follows binding to a sensor surface in real time, without labels.)
The target is the same in experiment [5]. Description: Binding affinity against recombinant LC3B (unknown origin) assessed as dissociation constant by small molecule microarray with a scanning oblique-incidence reflectivity difference microscopic analysis.
The target is the same in experiment [6]. As to the kind of experiment: Binding affinity against recombinant LC3B (unknown origin) assessed as dissociation constant by 2D-NMR titration assay.
The subject of another experiment is Bacteria. As to the kind of experiment: Inhibition of beta-lactamase (unknown origin) at up to 25 uM incubated for 15 mins by beta-lactamase assay.

As for `O=C1Nc2cc(Cl)c(Cl)cc2/C1=C\c1cc(Br)c(O)c(Br)c1`, the IC50 in experiment [1] was over 25 µM.

With `CC(C)C[C@H](NC(=O)[C@H](Cc1c[nH]cn1)NC(=O)[C@H](CCC(=O)O)NC(=O)[C@H](Cc1c[nH]c2ccccc12)NC(=O)[C@@H](NC(=O)[C@H](Cc1ccc(O)cc1)NC(=O)[C@@H](NC(=O)[C@H](C)NC(=O)[C@H](CC(=O)O)NC(=O)CCCC[C@@H]1SC[C@@H]2NC(=O)N[C@@H]21)[C@@H](C)O)[C@@H](C)O)C(=O)N[C@@H](C)C(=O)N[C@@H](Cc1c[nH]c2ccccc12)C(=O)N1CCC[C@H]1C(=O)O`, the Kd in experiment [2] was found to be 0.055 µM. In addition, in experiment [1], the IC50 came to 0.055 µM.

Consider `O=C1Nc2ccc(I)cc2/C1=C\c1cccc2nccn12`, for which the concentration for half-maximal inhibition (IC50) in experiment [3] and in experiment [1] was over 12.5 µM in each case.

On to `O=C1Nc2ccccc2/C1=C\c1cc(Br)c(O)c(Br)c1`, for which the IC50 worked out at 176 µM in experiment [3] and 175 µM in experiment [1].

In experiment [1], `Cc1ccc2c(c1)NC(=O)/C2=C/c1cc(Br)c(O)c(Br)c1` had an IC50 of 24 µM.

With `O=C1Nc2ccc(I)cc2/C1=C\c1cncs1`, the IC50 in experiment [3] and in experiment [1] was over 3.5 µM in each case.

`COC(=O)c1ccc2c(c1)NC(=O)/C2=C/c1cc(Br)c(O)c(Br)c1` returned an IC50 in experiment [1] of 5.7 µM.

`O=C1Nc2ccc(I)cc2/C1=C\c1cc(Br)c(O)c(Br)c1`: the results for the Kd in experiment [4], in experiment [5] and in experiment [6] were 8.9 µM, 0.468 µM and over 200 µM, respectively. For the same molecule, the values for the IC50 in experiment [3] and in experiment [1] were 4.4 µM and 9.1 µM, respectively. In addition, the inhibition entry in the experiment on Bacteria was “No effect”.

As to `O=C1Nc2ccc(I)cc2/C1=C\c1ccc(C(=O)O)cc1`, the IC50 in experiment [3] came to 119 µM; in experiment [1], 75 µM.

In turn, `O=C1Nc2ccc(I)cc2/C1=C\c1cc(Br)cc(Br)c1` registered an IC50 in experiment [1] of over 6.4 µM.

As to `O=C1Nc2ccc(I)cc2/C1=C\c1ccc(O)cc1`, the IC50 in experiment [3] and in experiment [1] was over 10 µM each time.

`O=C1Nc2ccc(Br)cc2/C1=C\c1cc(Br)c(O)c(Br)c1` came in with an IC50 in experiment [1] of 13 µM.

Consider `COc1ccc(/C=C2/C(=O)Nc3ccc(I)cc32)cc1`, for which the IC50 in experiment [3] and in experiment [1] was over 11 µM each time.

In experiment [1], `O=C1Nc2ccc(I)cc2/C1=C\c1cnc[nH]1` returned a 50% inhibitory concentration (IC50) of over 70 µM.

For the molecule `Cc1ncsc1/C=C1/C(=O)Nc2ccc(I)cc21`, the IC50 in experiment [1] is over 14 µM.

Consider `O=C1Nc2ccc(I)cc2/C1=C\c1ccc[nH]1`, for which the IC50 in experiment [3] and in experiment [1] was over 1.8 µM each time.

With `O=C1Nc2ccc(I)cc2/C1=C\c1ccccc1`, the IC50 in experiment [1] was over 25 µM.

`O=C1Nc2cc(I)ccc2/C1=C\c1cc(Br)c(O)c(Br)c1`: in experiment [1], the IC50 is 12 µM.

Regarding `O=C1Nc2ccc(I)cc2/C1=C\c1ccc(-c2ccc(C(F)(F)F)cc2)cc1`, the IC50 in experiment [3] and in experiment [1] was over 1 µM throughout.

As to `O=C1Nc2ccc(I)cc2/C1=C\c1cc(Br)cc(Br)c1O`, in experiment [1], the IC50 stood at 15 µM.

In general, IC50 refers to the concentration needed to halve the response being measured. A high value points to weaker potency. As usually defined, the Kd is the concentration at which binding is half-saturated.
